For orientation: IC50 means the concentration that gives 50% inhibition. A word on the Ki: it is a measure of affinity in units of concentration, obtained from inhibition or displacement.

Counter-ions that a name gives are not always drawn.

Assay [1] concerns the target T1, human H4 receptor (Homo sapiens, UniProt Q9H3N8). Briefly: biochemical.
For assay [2], the target named is T1, human H4 receptor. Kind of assay: biochemical. The source holds these as a separate data set.
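For IC50 in this document: membranes from SH-SY5Y cells with stable human H4 receptor expression, incubated with GDP 10 µM, radioactivity retained on filters counted by liquid scintillation.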
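For Ki in this document: radioligand displacement of a [3H]-labelled ligand from membranes of CHO cells stably expressing human H4 receptor, bound radioactivity counted on filters by liquid scintillation.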

T1 sequence (Q9H3N8 whole entry): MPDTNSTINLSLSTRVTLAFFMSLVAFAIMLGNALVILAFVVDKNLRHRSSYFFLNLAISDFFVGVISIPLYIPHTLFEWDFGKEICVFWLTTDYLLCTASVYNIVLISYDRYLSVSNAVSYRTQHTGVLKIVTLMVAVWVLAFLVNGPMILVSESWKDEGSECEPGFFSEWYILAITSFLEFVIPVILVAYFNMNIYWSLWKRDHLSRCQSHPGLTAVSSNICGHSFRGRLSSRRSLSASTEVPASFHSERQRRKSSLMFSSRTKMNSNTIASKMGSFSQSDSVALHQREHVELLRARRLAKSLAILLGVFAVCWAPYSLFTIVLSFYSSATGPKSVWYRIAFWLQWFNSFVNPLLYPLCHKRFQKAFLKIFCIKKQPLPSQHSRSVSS

As for `CN1CCC(OC2c3ccccc3CCn3cc(-c4ccsc4)nc32)CC1` (centres unmarked) [Example 12, 4-(1-methylpiperidin-4-yloxy)-2-thiophen-3-yl-9,10-dihydro-4H-3,10a-diaza-benzo[f]azulene], the IC50 against human H4 receptor [1] was less than 300 nM. For the same compound, the Ki on human H4 receptor [2] is less than 300 nM.

Take `CN1CCC(OC2c3ccccc3CCn3cc(-c4ccc(OC(F)(F)F)cc4)nc32)CC1` (centres unmarked) [Example 15, 4-(1-methylpiperidin-4-yloxy)-2-(4-trifluoromethoxyphenyl)-9,10-dihydro-4H-3,10a-diaza-benzo[f]azulene oxalate]: the IC50 against human H4 receptor [1] is less than 30 nM. For the same compound, on human H4 receptor [2], the inhibition constant (Ki) is less than 30 nM.

For the compound `CSc1ccc(-c2cn3c(n2)C(OC2CCN(C)CC2)c2ccccc2CC3)cc1` (centres unmarked) [Example 20, 4-(1-methylpiperidin-4-yloxy)-2-(4-methylsulfanylphenyl)-9,10-dihydro-4H-3,10a-diaza-benzo[f]azulene], the IC50 at human H4 receptor [1] is less than 30 nM. The compound also displayed an inhibition constant (Ki) at human H4 receptor [2] of less than 30 nM.

Compound `CCc1ccc(-c2cn3c(n2)C(OC2CCN(C)CC2)c2ccccc2CC3)cc1` (centres unmarked) [Example 21, 2-(4-ethylphenyl)-4-(1-methylpiperidin-4-yloxy)-9,10-dihydro-4H-3,10a-diaza-benzo[f]azulene] yielded an IC50 against human H4 receptor [1] of less than 30 nM. This compound also showed a Ki at human H4 receptor [2] of less than 300 nM.

Regarding `CCCc1ccc(-c2cn3c(n2)C(OC2CCN(C)CC2)c2ccccc2CC3)cc1` (centres unmarked) [Example 22, 4-(1-methylpiperidin-4-yloxy)-2-(4-propylphenyl)-9,10-dihydro-4H-3,10a-diaza-benzo[f]azulene], the IC50 at human H4 receptor [1] was less than 300 nM. This compound also returned a Ki on human H4 receptor [2] of less than 30 nM.

In turn, `CN1CCC(OC2c3ccccc3CCn3cc(-c4ccc(C(F)(F)F)cc4)nc32)CC1` (centres unmarked) [Example 25, 4-(1-methylpiperidin-4-yloxy)-2-(4-trifluoromethylphenyl)-9,10-dihydro-4H-3,10a-diaza-benzo[f]azulene] showed an IC50 at human H4 receptor [1] of less than 30 nM. In addition, the Ki at human H4 receptor [2] is less than 30 nM.

In the case of `CN1CCC(OC2c3ccccc3CCn3cc(-c4ccccc4Cl)nc32)CC1` (centres unmarked) [Example 26, 2-(2-chlorophenyl)-4-(1-methylpiperidin-4-yloxy)-9,10-dihydro-4H-3,10a-diaza-benzo[f]azulene oxalate], the IC50 against human H4 receptor [1] was less than 300 nM. At human H4 receptor [2], this compound registered a Ki of less than 30 nM.

Take `CN1CCC(OC2c3ccccc3CCn3cc(-c4ccccc4F)nc32)CC1` (centres unmarked) [Example 27, 2-(2-fluorophenyl)-4-(1-methylpiperidin-4-yloxy)-9,10-dihydro-4H-3,10a-diaza-benzo[f]azulene]: on human H4 receptor [1], the IC50 is less than 300 nM. The Ki on human H4 receptor [2] is less than 300 nM.

Compound `CN1CCC(OC2c3ccccc3CCn3cc(-c4ccc(S(=O)(=O)N(C)C)cc4)nc32)CC1` (centres unmarked) [Example 29, N,N-dimethyl-4-[4-(1-methylpiperidin-4-yloxy)-9,10-dihydro-4H-3,10a-diaza-benzo[f]azulen-2-yl]-benzenesulfonamide] registered a concentration for half-maximal inhibition (IC50) against human H4 receptor [1] of less than 300 nM. Also, the Ki at human H4 receptor [2] is less than 300 nM.

As for `C=CCc1cn2c(n1)C(OC1CCN(C)CC1)c1ccccc1CC2` (centres unmarked) [Example 30, 2-allyl-4-(1-methylpiperidin-4-yloxy)-9,10-dihydro-4H-3,10a-diaza-benzo[f]azulene oxalate], the IC50 at human H4 receptor [1] is less than 300 nM. Also, the Ki at human H4 receptor [2] is less than 300 nM.

`CN1CCC(OC2c3ccccc3CCn3cc(-c4ccc(C(=O)C(F)(F)F)cc4)nc32)CC1` (centres unmarked) [Example 31, 2,2,2-trifluoro-1-{4-[4-(1-methylpiperidin-4-yloxy)-9,10-dihydro-4H-3,10a-diaza-benzo[f]azulen-2-yl]-phenyl}-ethanone oxalate] returned a 50% inhibitory concentration (IC50) at human H4 receptor [1] of less than 30 nM. On human H4 receptor [2], this compound showed a Ki of less than 300 nM.

On human H4 receptor [1], `CC(C)c1ccc(-c2cn3c(n2)C(OC2CCN(C)CC2)c2ccccc2CC3)cc1` (centres unmarked) [Example 32, 2-(4-isopropylphenyl)-4-(1-methyl-piperidin-4-yloxy)-9,10-dihydro-4H-3,10a-diaza-benzo[f]azulene oxalate] gave an IC50 of less than 300 nM. At human H4 receptor [2], this compound showed a Ki of less than 300 nM.

Take `CN1CCC(OC2c3ccccc3CCn3cc(-c4ccc(CC#N)cc4)nc32)CC1` (centres unmarked) [Example 33, {4-[4-(1-methylpiperidin-4-yloxy)-9,10-dihydro-4H-3,10a-diaza-benzo[f]azulen-2-yl]-phenyl}-acetonitrile oxalate]: the IC50 against human H4 receptor [1] is less than 300 nM. Further, at human H4 receptor [2], the Ki was less than 300 nM.

In turn, `CN1CCC(OC2c3ccccc3CCn3cc(-c4ccc(C(=O)OC(C)(C)C)cc4)nc32)CC1` (centres unmarked) [Example 36, 4-[4-(1-methylpiperidin-4-yloxy)-9,10-dihydro-4H-3,10a-diaza-benzo[f]azulen-2-yl]-benzoic acid tert-butyl ester] gave an IC50 against human H4 receptor [1] of less than 30 nM. Moreover, the Ki on human H4 receptor [2] is less than 30 nM.

`CN1CCC(OC2c3ccccc3CCn3cc(-c4ccc(C#N)cc4)nc32)CC1` (centres unmarked) [Example 37, 4-[4-(1-methylpiperidin-4-yloxy)-9,10-dihydro-4H-3,10a-diaza-benzo[f]azulen-2-yl]-benzonitrile] yielded an IC50 against human H4 receptor [1] of less than 30 nM. The compound also showed an inhibitory constant (Ki) at human H4 receptor [2] of less than 30 nM.

On human H4 receptor [1], `CN1CCC(OC2c3ccccc3CCn3cc(CCc4ccccc4)nc32)CC1` (centres unmarked) [Example 38, 4-(1-methylpiperidin-4-yloxy)-2-phenethyl-9,10-dihydro-4H-3,10a-diaza-benzo[f]azulene oxalate] displayed an IC50 of less than 30 nM. On human H4 receptor [2], this compound displayed a Ki of less than 300 nM.

In turn, `CCCCc1ccc(-c2cn3c(n2)C(OC2CCN(C)CC2)c2ccccc2CC3)cc1` (centres unmarked) [Example 41, 2-(4-butylphenyl)-4-(1-methylpiperidin-4-yloxy)-9,10-dihydro-4H-3,10a-diaza-benzo[f]azulene oxalate] had an IC50 at human H4 receptor [1] of less than 300 nM. This compound also registered an inhibition constant (Ki) at human H4 receptor [2] of less than 30 nM.

`CCCCCc1ccc(-c2cn3c(n2)C(OC2CCN(C)CC2)c2ccccc2CC3)cc1` (centres unmarked) [Example 42, 4-(1-methylpiperidin-4-yloxy)-2-(4-pentylphenyl)-9,10-dihydro-4H-3,10a-diaza-benzo[f]azulene]: the half-inhibitory concentration (IC50) on human H4 receptor [1] is less than 30 nM. On human H4 receptor [2], this compound returned a Ki of less than 30 nM.

In turn, `CCCCCCc1ccc(-c2cn3c(n2)C(OC2CCN(C)CC2)c2ccccc2CC3)cc1` (centres unmarked) [Example 43, 2-(4-hexylphenyl)-4-(1-methylpiperidin-4-yloxy)-9,10-dihydro-4H-3,10a-diaza-benzo[f]azulene] yielded an IC50 against human H4 receptor [1] of less than 300 nM. Further, on human H4 receptor [2], the Ki is less than 300 nM.

`CCSc1ccc(-c2cn3c(n2)C(OC2CCN(C)CC2)c2ccccc2CC3)cc1` (centres unmarked) [Example 46, 2-(4-ethylsulfanylphenyl)-4-(1-methylpiperidin-4-yloxy)-9,10-dihydro-4H-3,10a-diaza-benzo[f]azulene oxalate]: the IC50 against human H4 receptor [1] is less than 30 nM. The compound also displayed a Ki at human H4 receptor [2] of less than 30 nM.

For the compound `CN1CCC(OC2c3ccccc3CCn3cc(-c4cccs4)nc32)CC1` (centres unmarked) [Example 47, 4-(1-methylpiperidin-4-yloxy)-2-thiophen-2-yl-9,10-dihydro-4H-3,10a-diaza-benzo[f]azulene oxalate], at human H4 receptor [1], the IC50 was less than 300 nM. The compound further showed a Ki at human H4 receptor [2] of less than 300 nM.

Compound `CN1CCC(OC2c3ccccc3CCn3cc(-c4ccc(NC(=O)OC(C)(C)C)cc4)nc32)CC1` (centres unmarked) [Example 49, {4-[4-(1-methylpiperidin-4-yloxy)-9,10-dihydro-4H-3,10a-diaza-benzo[f]azulen-2-yl]-phenyl}-carbamic acid tert-butyl ester] registered an IC50 at human H4 receptor [1] of less than 300 nM. The compound also registered a Ki on human H4 receptor [2] of less than 30 nM.

`CN1CCC(OC2c3ccccc3CCn3cc(-c4ccc5c(c4)OCO5)nc32)CC1` (centres unmarked) [Example 50, 2-benzo[1,3]dioxol-5-yl-4-(1-methylpiperidin-4-yloxy)-9,10-dihydro-4H-3,10a-diaza-benzo[f]azulene] came in with an IC50 at human H4 receptor [1] of less than 1000 nM. The compound also had a Ki at human H4 receptor [2] of less than 30 nM.

At human H4 receptor [1], `CN1CCC(OC2c3ccccc3CCn3cc(-c4ccc(F)cc4)nc32)CC1` (centres unmarked) [Example 56, 2-(4-fluorophenyl)-4-(1-methylpiperidin-4-yloxy)-9,10-dihydro-4H-3,10a-diaza-benzo[f]azulene] had a 50% inhibitory concentration (IC50) of less than 30 nM. For the same compound, on human H4 receptor [2], the Ki was less than 30 nM.

Compound `CN1CCC(OC2c3ccccc3CCn3cc(C4=CCCCC4)nc32)CC1` (centres unmarked) [Example 62, 2-cyclohex-1-enyl-4-(1-methylpiperidin-4-yloxy)-9,10-dihydro-4H-3,10a-diaza-benzo[f]azulene oxalate] displayed an IC50 against human H4 receptor [1] of less than 300 nM. The Ki on human H4 receptor [2] was less than 300 nM.

The compound `CN1CCC(OC2c3ccccc3CCn3cc(-c4ccc(C(C)(F)F)cc4)nc32)CC1` (centres unmarked) [Example 64, 2-[4-(1,1-difluoroethyl)-phenyl]-4-(1-methylpiperidin-4-yloxy)-9,10-dihydro-4H-3,10a-diaza-benzo[f]azulene oxalate] returned an IC50 against human H4 receptor [1] of less than 30 nM. This compound displayed an inhibitory constant (Ki) at human H4 receptor [2] of less than 300 nM.

On human H4 receptor [1], `CN1CCC(OC2c3ccccc3CCn3cc(C4=CCCC4)nc32)CC1` (centres unmarked) [Example 65, 2-cyclopent-1-enyl-4-(1-methylpiperidin-4-yloxy)-9,10-dihydro-4H-3,10a-diaza-benzo[f]azulene] gave an IC50 of less than 1000 nM. In addition, the Ki on human H4 receptor [2] is less than 300 nM.

Compound `CN1CCC(OC2c3ccccc3CCn3cc(SCc4ccccc4)nc32)CC1` (centres unmarked) [Example 67, 2-benzylsulfanyl-4-(1-methylpiperidin-4-yloxy)-9,10-dihydro-4H-3,10a-diaza-benzo[f]azulene oxalate] had an IC50 at human H4 receptor [1] of less than 300 nM. Besides, on human H4 receptor [2], the Ki was less than 300 nM.

With `CN1CCC(OC2c3ccccc3CCn3cc(-c4cccc(F)c4)nc32)CC1` (centres unmarked) [Example 68, 2-(3-fluorophenyl)-4-(1-methylpiperidin-4-yloxy)-9,10-dihydro-4H-3,10a-diaza-benzo[f]azulene oxalate], the IC50 on human H4 receptor [1] is less than 300 nM. For the same compound, the Ki on human H4 receptor [2] is less than 30 nM.

`CN1CCC(OC2c3ccccc3CCn3cc(-c4ccc(C(F)F)cc4)nc32)CC1` (centres unmarked) [Example 69, 2-(4-difluoromethylphenyl)-4-(1-methylpiperidin-4-yloxy)-9,10-dihydro-4H-3,10a-diaza-benzo[f]azulene] registered an IC50 against human H4 receptor [1] of less than 300 nM. On human H4 receptor [2], the inhibitory constant (Ki) is less than 30 nM.

On to `C=C(C)Cc1cn2c(n1)C(OC1CCN(C)CC1)c1ccccc1CC2` (centres unmarked) [Example 70, 2-(2-methyl-allyl)-4-(1-methylpiperidin-4-yloxy)-9,10-dihydro-4H-3,10a-diaza-benzo[f]azulene oxalate], for which the IC50 against human H4 receptor [1] is less than 300 nM. For the same compound, at human H4 receptor [2], the Ki is less than 300 nM.

For the origin of these results see patent publication US9255101B2 (BIOPROJECT, priority 2012, dated 2016).
